16 molecules from ChEMBL document CHEMBL3400050, “The synthesis and evaluation of sesamol and benzodioxane derivatives as inhibitors of monoamine oxidase” (Bioorg Med Chem Lett, 2015) can be followed below.

A value given as a limit tells only on which side of the number the result lay.

For data set [1], the species on record is Homo sapiens. Nature of the data set: Selectivity index, ratio of IC50 for human recombinant MAOA to IC50 for human recombinant MAOB.
For data set [2], the target named is T1, Amine oxidase [flavin-containing] A (Homo sapiens, UniProt P21397).
T1 sequence (P21397 whole entry): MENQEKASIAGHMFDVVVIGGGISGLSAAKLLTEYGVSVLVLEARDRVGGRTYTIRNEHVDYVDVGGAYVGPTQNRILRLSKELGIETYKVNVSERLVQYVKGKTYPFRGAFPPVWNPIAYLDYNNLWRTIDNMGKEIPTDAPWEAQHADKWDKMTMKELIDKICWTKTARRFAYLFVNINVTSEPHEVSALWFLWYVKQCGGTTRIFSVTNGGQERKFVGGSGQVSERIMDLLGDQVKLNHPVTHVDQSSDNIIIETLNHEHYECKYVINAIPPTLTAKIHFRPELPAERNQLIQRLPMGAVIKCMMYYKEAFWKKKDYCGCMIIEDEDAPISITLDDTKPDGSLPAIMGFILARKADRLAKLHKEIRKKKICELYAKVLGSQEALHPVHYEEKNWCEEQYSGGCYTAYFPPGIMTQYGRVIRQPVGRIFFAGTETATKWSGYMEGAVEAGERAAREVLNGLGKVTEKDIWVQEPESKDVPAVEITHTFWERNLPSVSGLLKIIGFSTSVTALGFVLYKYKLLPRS
The data set can be described thus: Inhibition of human recombinant MAOA at 100 uM using kynuramine substrate assessed as reduction in MAO-generated 4-hydroxyquinoline level by fluorescence spectrophotometry.

The target in data set [3] is T2, Amine oxidase [flavin-containing] B (Homo sapiens, UniProt P27338).
T2 sequence (P27338 whole entry): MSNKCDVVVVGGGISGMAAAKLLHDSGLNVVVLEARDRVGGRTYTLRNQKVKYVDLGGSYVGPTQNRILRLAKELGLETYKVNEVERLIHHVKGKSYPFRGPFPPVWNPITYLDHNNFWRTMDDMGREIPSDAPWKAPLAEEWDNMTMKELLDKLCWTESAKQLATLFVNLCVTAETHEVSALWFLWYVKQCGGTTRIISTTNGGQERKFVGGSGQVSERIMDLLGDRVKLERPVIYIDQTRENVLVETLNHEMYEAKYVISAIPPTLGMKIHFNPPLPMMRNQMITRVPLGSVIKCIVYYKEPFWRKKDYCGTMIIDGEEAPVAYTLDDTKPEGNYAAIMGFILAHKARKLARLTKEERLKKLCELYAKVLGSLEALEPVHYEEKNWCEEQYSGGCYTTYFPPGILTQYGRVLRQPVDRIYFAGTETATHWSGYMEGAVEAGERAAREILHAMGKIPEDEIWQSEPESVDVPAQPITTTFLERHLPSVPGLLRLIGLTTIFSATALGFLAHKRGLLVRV
Nature of the data set: Inhibition of human recombinant MAOB using kynuramine substrate assessed as reduction in MAO-generated 4-hydroxyquinoline level by fluorescence spectrophotometry.

Data set [4] deals with T1, Amine oxidase [flavin-containing] A. Nature of the data set: Inhibition of human recombinant MAOA using kynuramine substrate assessed as reduction in MAO-generated 4-hydroxyquinoline level by fluorescence spectrophotometry.
For data set [5], the target named is T2, Amine oxidase [flavin-containing] B. The data set can be described thus: Reversible inhibition of human recombinant MAOB pre-incubated for 15 mins at 4 times IC50 level subsequently dialysed for 24 hrs followed by two fold dilution with kynuramine substrate assessed as enzyme catalytic activity by measuring 4-hydroxyquinoline level after 20 mins by fluorescence spectrophotometry. More on the design: scale not given: the % may be the effect or the level left.

Data set [6] has the same target. Nature of the data set: Competitive inhibition of human recombinant MAOB using kynuramine substrate assessed as reduction in MAO-generated 4-hydroxyquinoline level by Lineweaver-Burk plot.
For data set [7] the target is unchanged. The data set can be described thus: Reversible inhibition of human recombinant MAOB pre-incubated for 15 mins at 4 times IC50 level using kynuramine substrate assessed as enzyme catalytic activity by measuring 4-hydroxyquinoline level after 20 mins by fluorescence spectrophotometry. The arrangement: scale not given: the % may be the effect or the level left.

In the case of `c1ccc(COc2ccc3c(c2)OCO3)cc1`, in data set [1], the Ratio IC50 was more than 195. Further, the “inhibition (INH)” value in data set [2] is on record as “Not Active”. In addition, the IC50 (usually the concentration needed to halve the response being measured) in data set [3] turned out to be 513 nM.
With `Clc1cccc(COc2ccc3c(c2)OCO3)c1`, in data set [1], the Ratio IC50 was determined as 209. Besides, the IC50 in data set [3] was 248 nM; in data set [4], 51800 nM.
Take `Clc1ccc(OCCOc2ccc3c(c2)OCO3)cc1`: the Ratio IC50 in data set [1] was more than 59. Moreover, in data set [2], the “inhibition (INH)” value is reported as “Not Active”. Also, the concentration for half-maximal inhibition (IC50) in data set [3] came out at 1690 nM.
Regarding `Brc1cccc(COc2ccc3c(c2)OCO3)c1`, the Ratio IC50 in data set [1] turned out to be 234. The IC50 in data set [3] stood at 164 nM; in data set [4] it was 38400 nM.
Regarding `c1ccc(CCCOc2ccc3c(c2)OCO3)cc1`, the Ratio IC50 in data set [1] is 11. In addition, the values for the IC50 in data set [3] and in data set [4] were 7290 nM and 77100 nM, respectively.
Consider `Clc1ccc(OCCOc2ccc3c(c2)OCCO3)cc1`, for which, in data set [1], the Ratio IC50 was more than 287. Moreover, the “inhibition (INH)” value in data set [2] was “Not Active”. In addition, the IC50 in data set [3] worked out at 348 nM.
For the molecule `Brc1cccc(COc2ccc3c(c2)OCCO3)c1`, the Activity in data set [5] is recorded as 87%; in data set [7], 21%. Also, the Ki (commonly the equilibrium dissociation constant of an inhibitor or competing ligand from its target) in data set [6] stood at 41 nM. For the same molecule, the Ratio IC50 in data set [1] came to 375. The results for the IC50 in data set [3] and in data set [4] were 45 nM and 16900 nM, respectively.
For `c1ccc(OCCOc2ccc3c(c2)OCCO3)cc1`, in data set [1], the Ratio IC50 turned out to be 637. The IC50 stood at 109 nM in data set [3] and 69400 nM in data set [4].
On to `c1ccc(CCOc2ccc3c(c2)OCCO3)cc1`, for which the Ratio IC50 in data set [1] was determined as 579. Further, the IC50 in data set [3] turned out to be 48 nM; in data set [4] it was 27800 nM.
Regarding `Brc1ccc(OCCOc2ccc3c(c2)OCCO3)cc1`, the Ratio IC50 in data set [1] is more than 106. Also, the “inhibition (INH)” value in data set [2] is “Not Active”. For the same molecule, the IC50 in data set [3] was determined as 941 nM.
Consider `c1ccc(CCCOc2ccc3c(c2)OCCO3)cc1`, for which the Ratio IC50 in data set [1] turned out to be 74. Further, the IC50 was determined as 947 nM in data set [3] and 70400 nM in data set [4].
On to `Clc1cccc(COc2ccc3c(c2)OCCO3)c1`, for which the Ratio IC50 in data set [1] worked out at 232. Besides, the results for the IC50 in data set [3] and in data set [4] were 57 nM and 13200 nM, respectively.
As to `Brc1ccc(OCCOc2ccc3c(c2)OCO3)cc1`, the Ratio IC50 in data set [1] is more than 14. The “inhibition (INH)” value in data set [2] is recorded as “Not Active”. The IC50 in data set [3] worked out at 7070 nM.
For `c1ccc(OCCOc2ccc3c(c2)OCO3)cc1`, in that order: more than 88, “Not Active” and 1140 nM.
For `c1ccc(COc2ccc3c(c2)OCCO3)cc1`, the Ratio IC50 in data set [1] is 215. Also, the IC50 in data set [3] stood at 168 nM; in data set [4], 36000 nM.
On to `c1ccc(CCOc2ccc3c(c2)OCO3)cc1`, for which the Ratio IC50 in data set [1] turned out to be 26. For the same molecule, the IC50 in data set [3] was found to be 3310 nM; in data set [4], 87700 nM.
